Data on 7 compounds can be found in patent publication US5919771A, “Urea and thiourea derivatives of glycopeptides” (Eli Lilly and Company, priority 1998, dated 1999).

Some results are limits rather than exact numbers.

Common to all, as to type: cell-based
In assay [1] the test system is Enterococcus faecium and faecalis (RESISTANT). As to conditions: geometric mean of 4-6 isolates. How it is done:
(§1) The antibacterial efficacy of the present compounds is illustrated by Table II. The minimal inhibitory concentrations (MICs) were determined using a standard broth micro-dilution assay.

Assay [2] deals with Enterococcus faecium and faecalis (SENSITIVE). The note with it: geometric mean of 4-6 isolates. On the procedure: as §1
Assay [3] deals with Staphylococcus aureus 446. In words: MIC, standard broth micro-dilution assay, SA 446. On the procedure:
as §1
On the technique in general: Broth dilution looks for growth in wells or tubes with falling amounts of substance.

In assay [4] the test system is Staphylococcus aureus 489. In words: MIC, standard broth micro-dilution assay, SA 489. On the procedure:
as §1

The subject of assay [5] is Staphylococcus aureus 447. Briefly: MIC, standard broth micro-dilution assay, SA 447. On the procedure: as §1
Assay [6] has as its system Staphylococcus haemolyticus 105. Briefly: MIC, standard broth micro-dilution assay, SH 105. On the procedure: as §1
In assay [7] the test system is Staphylococcus haemolyticus 415. In words: MIC, standard broth micro-dilution assay, SH 415. How it is done: as §1
Assay [8] relates to Staphylococcus epidermidis 270. In words: MIC, standard broth micro-dilution assay, SE 270. On the procedure: as §1
Assay [9] relates to Streptococcus pyogenes C203. Briefly: MIC, standard broth micro-dilution assay, SPY C203. How it is done:
as §1

The test system of assay [10] is Streptococcus pneumoniae P1. Briefly: MIC, standard broth micro-dilution assay, SPN P1. How it is done:
as §1

Take `CC(C)CC(C(=O)NC1C(=O)NC(CC(N)=O)C(=O)NC2C(=O)NC3C(=O)NC(C(=O)NC(C(=O)O)c4cc(O)cc(O)c4-c4cc3ccc4O)C(OC3CC(C)(N)C(O)C(C)O3)c3ccc(c(Cl)c3)Oc3cc2cc(c3OC2OC(CO)C(O)C(O)C2OC2CC(C)(NCc3ccc(Cl)cc3)C(O)C(C)O2)Oc2ccc(cc2Cl)C1O)N(C)C(=S)Nc1ccc(Cl)cc1` (stereo not shown) [Example 12, N^LEU -((p-CHLOROPHENYL)-THIOCARBAMOYL)-N^DISACC -(p-CHLOROBENZYL)A82846B]: the “Minimal Inhibitory Concentration (MIC) RESISTANT” value in assay [1] worked out at 128. Besides, the “Minimal Inhibitory Concentration (MIC) SENSITIVE” value in assay [2] is recorded as 3.5. The “Minimal Inhibitory Concentration (MIC) SA 446” value in [3] is on record as 4. Besides, in assay [4], the “Minimal Inhibitory Concentration (MIC) SA 489” value is reported as 1. The “Minimal Inhibitory Concentration (MIC) SA 447” value in [5] amounted to 1. Further, in assay [6], the “Minimal Inhibitory Concentration (MIC) SH 105” value was 2. Besides, the “Minimal Inhibitory Concentration (MIC) SH 415” value in assay [7] was 4. In addition, the “Minimal Inhibitory Concentration (MIC) SE 270” value in assay [8] is listed as 1. Also, the “Minimal Inhibitory Concentration (MIC) SPY C203” value in assay [9] is recorded as at most 0.06. Further, the “Minimal Inhibitory Concentration (MIC) SPN P1” value in assay [10] is listed as at most 0.06.

For `COc1ccc(NC(=S)N(C)C(CC(C)C)C(=O)NC2C(=O)NC(CC(N)=O)C(=O)NC3C(=O)NC4C(=O)NC(C(=O)NC(C(=O)O)c5cc(O)cc(O)c5-c5cc4ccc5O)C(OC4CC(C)(N)C(O)C(C)O4)c4ccc(c(Cl)c4)Oc4cc3cc(c4OC3OC(CO)C(O)C(O)C3OC3CC(C)(NCc4ccc(Cl)cc4)C(O)C(C)O3)Oc3ccc(cc3Cl)C2O)cc1` (stereo not shown) [Example 13, N^LEU -((p-METHOXYPHENYL)-THIOCARBAMOYL)-N^DISACC -(p-CHLOROBENZYL)A82846B], in [1], the “Minimal Inhibitory Concentration (MIC) RESISTANT” value is over 128. In addition, the “Minimal Inhibitory Concentration (MIC) SENSITIVE” value in assay [2] came to 3.5. Moreover, the “Minimal Inhibitory Concentration (MIC) SA 446” value in [3] was found to be 4. Besides, the “Minimal Inhibitory Concentration (MIC) SA 489” value in assay [4] is recorded as 2. For the same compound, in [5], the “Minimal Inhibitory Concentration (MIC) SA 447” value was 2. Besides, the “Minimal Inhibitory Concentration (MIC) SH 105” value in [6] is 4. Further, in assay [7], the “Minimal Inhibitory Concentration (MIC) SH 415” value turned out to be 8. Also, the “Minimal Inhibitory Concentration (MIC) SE 270” value in assay [8] stood at 2. Further, the “Minimal Inhibitory Concentration (MIC) SPY C203” value in [9] is at most 0.06. The “Minimal Inhibitory Concentration (MIC) SPN P1” value in assay [10] is on record as at most 0.06.

With `CC(C)CC(C(=O)NC1C(=O)NC(CC(N)=O)C(=O)NC2C(=O)NC3C(=O)NC(C(=O)NC(C(=O)O)c4cc(O)cc(O)c4-c4cc3ccc4O)C(OC3CC(C)(N)C(O)C(C)O3)c3ccc(c(Cl)c3)Oc3cc2cc(c3OC2OC(CO)C(O)C(O)C2OC2CC(C)(N)C(O)C(C)O2)Oc2ccc(cc2Cl)C1O)N(C)C(=S)Nc1ccc([N+](=O)[O-])cc1` (stereo not shown) [Example 14, N^LEU -((p-NITROPHENYL)-THIOCARBAMOYL)A82846B], the “Minimal Inhibitory Concentration (MIC) RESISTANT” value in assay [1] is listed as over 128. Further, the “Minimal Inhibitory Concentration (MIC) SENSITIVE” value in assay [2] is 3.5. In [3], the “Minimal Inhibitory Concentration (MIC) SA 446” value is recorded as 2. Also, the “Minimal Inhibitory Concentration (MIC) SA 489” value in assay [4] was determined as 2. The “Minimal Inhibitory Concentration (MIC) SA 447” value in assay [5] is 4. The “Minimal Inhibitory Concentration (MIC) SH 105” value in assay [6] was found to be 16. The “Minimal Inhibitory Concentration (MIC) SH 415” value in [7] came out at 32. The “Minimal Inhibitory Concentration (MIC) SE 270” value in assay [8] was 4. The “Minimal Inhibitory Concentration (MIC) SPY C203” value in assay [9] is reported as at most 0.06. Moreover, the “Minimal Inhibitory Concentration (MIC) SPN P1” value in [10] was determined as 0.25.

As for `CC(C)CC(C(=O)NC1C(=O)NC(CC(N)=O)C(=O)NC2C(=O)NC3C(=O)NC(C(=O)NC(C(=O)O)c4cc(O)cc(O)c4-c4cc3ccc4O)C(OC3CC(C)(N)C(O)C(C)O3)c3ccc(c(Cl)c3)Oc3cc2cc(c3OC2OC(CO)C(O)C(O)C2OC2CC(C)(N)C(O)C(C)O2)Oc2ccc(cc2Cl)C1O)N(C)C(=S)Nc1ccc(N(C)C)cc1` (stereo not shown) [Example 15, N^LEU -((p-(DIMETHYLAMINO)-PHENYL)THIOCARBAMOYL)A82846B], the “Minimal Inhibitory Concentration (MIC) RESISTANT” value in assay [1] was over 128. For the same compound, the “Minimal Inhibitory Concentration (MIC) SENSITIVE” value in assay [2] stood at 24. Further, in assay [3], the “Minimal Inhibitory Concentration (MIC) SA 446” value came to 8. The “Minimal Inhibitory Concentration (MIC) SA 489” value in [4] is recorded as 4. The “Minimal Inhibitory Concentration (MIC) SA 447” value in assay [5] is 16. The “Minimal Inhibitory Concentration (MIC) SH 105” value in assay [6] is on record as over 64. For the same compound, the “Minimal Inhibitory Concentration (MIC) SH 415” value in assay [7] is listed as over 64. Moreover, in [8], the “Minimal Inhibitory Concentration (MIC) SE 270” value amounted to 16. Besides, in [9], the “Minimal Inhibitory Concentration (MIC) SPY C203” value is 0.25. Also, in assay [10], the “Minimal Inhibitory Concentration (MIC) SPN P1” value is reported as 0.25.

Consider `CC(C)CC(C(=O)NC1C(=O)NC(CC(N)=O)C(=O)NC2C(=O)NC3C(=O)NC(C(=O)NC(C(=O)O)c4cc(O)cc(O)c4-c4cc3ccc4O)C(OC3CC(C)(N)C(O)C(C)O3)c3ccc(c(Cl)c3)Oc3cc2cc(c3OC2OC(CO)C(O)C(O)C2OC2CC(C)(N)C(O)C(C)O2)Oc2ccc(cc2Cl)C1O)N(C)C(=S)Nc1ccc(OCc2ccccc2)cc1` (stereo not shown) [Example 16, N^LEU -((p-(BENZYLOXY)PHENYL)-THIOCARBAMOYL)A82846B], for which the “Minimal Inhibitory Concentration (MIC) RESISTANT” value in assay [1] is recorded as over 128. For the same compound, the “Minimal Inhibitory Concentration (MIC) SENSITIVE” value in assay [2] was 7. Besides, in assay [3], the “Minimal Inhibitory Concentration (MIC) SA 446” value turned out to be 1. Further, the “Minimal Inhibitory Concentration (MIC) SA 489” value in [4] is reported as 0.5. Further, the “Minimal Inhibitory Concentration (MIC) SA 447” value in assay [5] was determined as 1. The “Minimal Inhibitory Concentration (MIC) SH 105” value in assay [6] is 8. For the same compound, the “Minimal Inhibitory Concentration (MIC) SH 415” value in assay [7] is given as 64. Moreover, in [8], the “Minimal Inhibitory Concentration (MIC) SE 270” value is given as 4. In assay [9], the “Minimal Inhibitory Concentration (MIC) SPY C203” value was at most 0.06. The “Minimal Inhibitory Concentration (MIC) SPN P1” value in assay [10] amounted to 0.125.

Turning to `CCCCc1ccc(NC(=S)N(C)C(CC(C)C)C(=O)NC2C(=O)NC(CC(N)=O)C(=O)NC3C(=O)NC4C(=O)NC(C(=O)NC(C(=O)O)c5cc(O)cc(O)c5-c5cc4ccc5O)C(OC4CC(C)(N)C(O)C(C)O4)c4ccc(c(Cl)c4)Oc4cc3cc(c4OC3OC(CO)C(O)C(O)C3OC3CC(C)(N)C(O)C(C)O3)Oc3ccc(cc3Cl)C2O)cc1` (stereo not shown) [Example 17, N^LEU -((p-n-BUTYLPHENYL)-THIOCARBAMOYL)A82846B], the “Minimal Inhibitory Concentration (MIC) RESISTANT” value in assay [1] was over 128. The “Minimal Inhibitory Concentration (MIC) SENSITIVE” value in [2] is given as 6.1. In assay [3], the “Minimal Inhibitory Concentration (MIC) SA 446” value worked out at 2. For the same compound, the “Minimal Inhibitory Concentration (MIC) SA 489” value in [4] is given as 1. Besides, in assay [5], the “Minimal Inhibitory Concentration (MIC) SA 447” value is recorded as 1. Also, in assay [6], the “Minimal Inhibitory Concentration (MIC) SH 105” value is recorded as 4. Besides, the “Minimal Inhibitory Concentration (MIC) SH 415” value in [7] was 32. In addition, the “Minimal Inhibitory Concentration (MIC) SE 270” value in [8] came to 2. The “Minimal Inhibitory Concentration (MIC) SPY C203” value in assay [9] stood at 0.25. Moreover, the “Minimal Inhibitory Concentration (MIC) SPN P1” value in assay [10] is at most 0.06.

For `CCCCc1ccc(NC(=S)N(C)C(CC(C)C)C(=O)NC2C(=O)NC(CC(N)=O)C(=O)NC3C(=O)NC4C(=O)NC(C(=O)NC(C(=O)O)c5cc(O)cc(O)c5-c5cc4ccc5O)C(OC4CC(C)(N)C(O)C(C)O4)c4ccc(c(Cl)c4)Oc4cc3cc(c4OC3OC(CO)C(O)C(O)C3OC3CC(C)(NCc4ccc(Oc5ccccc5)cc4)C(O)C(C)O3)Oc3ccc(cc3Cl)C2O)cc1` (stereo not shown) [Example 18, N^LEU -((p-n-BUTYLPHENYL)-THIOCARBAMOYL)-N^DISACC -(p-PHENOXYBENZYL)A82846B], the “Minimal Inhibitory Concentration (MIC) RESISTANT” value in assay [1] is 4.7. For the same compound, the “Minimal Inhibitory Concentration (MIC) SENSITIVE” value in assay [2] is 1.7. In addition, the “Minimal Inhibitory Concentration (MIC) SA 446” value in assay [3] was 2. In [4], the “Minimal Inhibitory Concentration (MIC) SA 489” value came out at 2. In assay [5], the “Minimal Inhibitory Concentration (MIC) SA 447” value is 2. Further, the “Minimal Inhibitory Concentration (MIC) SH 105” value in assay [6] came out at 2. In addition, the “Minimal Inhibitory Concentration (MIC) SH 415” value in [7] was 2. Besides, the “Minimal Inhibitory Concentration (MIC) SE 270” value in assay [8] was 2. The “Minimal Inhibitory Concentration (MIC) SPY C203” value in assay [9] is given as 0.25. For the same compound, in assay [10], the “Minimal Inhibitory Concentration (MIC) SPN P1” value came out at 2.
